{"source": "patent US6855843B2", "about": "“Inhibitors of α4 mediated cell adhesion” (Tanabe Seiyaku Co., Ltd., priority 1998, dated 2005)"}
{"molecular_target": "T1, α4β7 (adhesion of RPMI cells to CS-1) (Homo sapiens, UniProt P13612+P26010)", "T1 construct": "endogenous in cells", "T1 sequence (P13612 34-1032)": "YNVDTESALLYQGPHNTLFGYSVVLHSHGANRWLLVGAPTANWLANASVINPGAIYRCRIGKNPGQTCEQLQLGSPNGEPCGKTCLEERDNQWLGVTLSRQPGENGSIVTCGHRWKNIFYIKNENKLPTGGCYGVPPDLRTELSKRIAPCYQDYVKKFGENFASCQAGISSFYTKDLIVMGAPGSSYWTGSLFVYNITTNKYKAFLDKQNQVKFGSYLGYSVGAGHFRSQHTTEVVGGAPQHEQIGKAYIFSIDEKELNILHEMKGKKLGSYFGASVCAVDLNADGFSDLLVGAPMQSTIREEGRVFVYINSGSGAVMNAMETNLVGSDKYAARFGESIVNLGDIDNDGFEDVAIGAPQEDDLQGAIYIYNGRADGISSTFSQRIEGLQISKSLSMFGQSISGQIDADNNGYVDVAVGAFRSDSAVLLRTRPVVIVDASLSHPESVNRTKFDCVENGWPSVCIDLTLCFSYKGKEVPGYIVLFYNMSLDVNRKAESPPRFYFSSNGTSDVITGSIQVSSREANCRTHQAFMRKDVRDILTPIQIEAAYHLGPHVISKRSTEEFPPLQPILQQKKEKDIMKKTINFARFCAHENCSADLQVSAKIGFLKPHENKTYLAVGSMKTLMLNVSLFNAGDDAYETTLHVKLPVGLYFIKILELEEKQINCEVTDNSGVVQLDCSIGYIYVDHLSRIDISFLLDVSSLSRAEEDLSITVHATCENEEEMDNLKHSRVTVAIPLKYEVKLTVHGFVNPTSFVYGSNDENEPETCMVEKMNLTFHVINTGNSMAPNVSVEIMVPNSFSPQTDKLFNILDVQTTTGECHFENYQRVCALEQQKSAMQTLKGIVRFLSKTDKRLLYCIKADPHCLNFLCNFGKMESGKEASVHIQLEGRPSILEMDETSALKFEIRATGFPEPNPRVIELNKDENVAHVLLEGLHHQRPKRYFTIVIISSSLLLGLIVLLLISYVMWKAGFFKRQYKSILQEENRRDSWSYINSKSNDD", "T1 sequence (P26010 20-798)": "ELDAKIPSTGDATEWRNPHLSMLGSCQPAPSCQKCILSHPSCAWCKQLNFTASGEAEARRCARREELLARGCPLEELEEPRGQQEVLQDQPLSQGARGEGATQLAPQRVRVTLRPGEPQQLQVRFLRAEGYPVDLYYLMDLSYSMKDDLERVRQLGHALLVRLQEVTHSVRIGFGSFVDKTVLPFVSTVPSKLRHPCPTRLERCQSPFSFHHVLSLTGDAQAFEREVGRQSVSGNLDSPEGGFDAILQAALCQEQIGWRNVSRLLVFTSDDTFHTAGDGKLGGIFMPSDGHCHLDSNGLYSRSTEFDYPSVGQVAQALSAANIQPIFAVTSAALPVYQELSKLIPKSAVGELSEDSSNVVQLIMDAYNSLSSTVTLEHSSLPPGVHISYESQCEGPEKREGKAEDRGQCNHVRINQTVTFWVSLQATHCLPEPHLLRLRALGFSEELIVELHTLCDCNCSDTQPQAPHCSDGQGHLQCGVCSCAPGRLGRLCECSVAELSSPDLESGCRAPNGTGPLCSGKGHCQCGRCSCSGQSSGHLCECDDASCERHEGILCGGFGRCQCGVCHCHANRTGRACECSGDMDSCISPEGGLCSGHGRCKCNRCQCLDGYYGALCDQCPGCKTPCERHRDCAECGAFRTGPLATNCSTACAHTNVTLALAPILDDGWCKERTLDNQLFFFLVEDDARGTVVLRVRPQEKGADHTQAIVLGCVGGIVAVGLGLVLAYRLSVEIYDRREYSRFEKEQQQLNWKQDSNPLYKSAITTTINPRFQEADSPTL", "assay": "RPMI-CS-1 cell adhesion assay", "type": "cell-based", "conditions": "adhesion of RPMI B-cell line (expresses α4β7) to CS-1 peptide coated microwells; read-out: RPMI-CS-1 IC50 value range", "units": {"IC50": "nM"}}
{"molecule": "COc1ccccc1-c1ccc(C[C@H](NC(=O)c2ccc(-n3cccc3CO)cc2Cl)C(=O)O)cc1", "note": "[Example 291, N-[2-Chloro-4-(2-hydroxymethyl-1-pyrrolyl)benzoyl]-4-(2-methoxyphenyl)-L-phenylalanine]", "IC50": "1000 to 5000"}
{"molecule": "COC(=O)[C@H](Cc1ccc(-c2c(OC)cccc2OC)cc1)NC(=O)c1c(Cl)cccc1Cl", "note": "[Example 7A, N-(2,6-Dichlorobenzoyl)-4-(2,6-dimethoxyphenyl)-L-phenylalanine methyl ester]", "IC50": "< 300"}
{"molecule": "COc1ccccc1-c1ccc(C[C@H](NC(=O)[C@H](C)c2ccccc2)C(=O)O)cc1", "note": "[Example 78]", "IC50": "300 to 1000"}
{"molecule": "O=C(N[C@@H](Cc1ccc(-c2ccncc2)cc1)C(=O)O)c1c(Cl)cccc1Cl", "note": "[Example 217, N-(2,6-Dichlorobenzoyl)-4-(4-pyridyl)-L-phenylalanine]", "IC50": "1000 to 5000"}
{"molecule": "COc1ccccc1-c1ccc(C[C@H](NC(=O)c2ccc(NS(=O)(=O)C(F)(F)F)cc2Cl)C(=O)O)cc1", "note": "[Example 65, N-[2-Chloro-4-(trifluoromethanesulfonylamino)benzoyl]-4-(2-methoxyphenyl)-L-phenylalanine]", "IC50": "< 300"}
{"molecule": "O=C(N[C@@H](Cc1ccc(-c2ccccc2CO)cc1)C(=O)O)c1c(Cl)cccc1Cl", "note": "[Example 50, N-(2,6-Dichlorobenzoyl)-4-[2-(hydroxymethyl)phenyl]-L-phenylalanine]", "IC50": "< 300"}
{"molecule": "C[S+]([O-])c1ccccc1-c1ccc(C[C@H](NC(=O)c2c(Cl)cccc2Cl)C(=O)O)cc1", "note": "(single isomer, unassigned) [Example 152C, N-(2,6-dichloro-benzoyl)-4-[2-(methylsulfinyl)phenyl]-L-phenylalanine]", "IC50": "300 to 1000"}
{"molecule": "N-(2,6-Dichlorobenzoyl)-4-(2,6-dimethoxyphenyl)-L-phenylalanine 2-(dimethylamino)ethyl ester [Example 271]", "IC50": "< 300"}
{"molecule": "COc1ccc(-c2ccc(C[C@H](NC(=O)c3c(Cl)cccc3Cl)C(=O)O)cc2)cc1", "note": "[Example 118]", "IC50": "1000 to 5000"}
{"molecule": "COc1ccc(S(=O)(=O)Nc2ccc(C(=O)N[C@@H](Cc3ccc(-c4ccccc4OC)cc3)C(=O)O)c(Cl)c2)cc1", "note": "[Example 190, N-[2-Chloro-4-[[(4-methoxyphenyl)sulfonyl]amino]-benzoyl]-4-(2-methoxyphenyl)-L-phenylalanine]", "IC50": "< 300"}
{"molecule": "CSc1ccccc1-c1ccc(C[C@H](NC(=O)c2c(Cl)cccc2Cl)C(=O)O)cc1", "note": "[Example 143]", "IC50": "< 300"}
{"molecule": "CCOc1ccc2c(c1-c1ccc(C[C@H](NC(=O)c3c(Cl)cccc3Cl)C(=O)O)cc1)OCO2", "note": "[Example 237, N-(2,6-Dichlorobenzoyl)-4-(2,3-methylenedioxy-6-ethoxyphenyl)-L-phenylalanine]", "IC50": "< 300"}
{"molecule": "COc1cc(F)c(-c2ccc(C[C@H](NC(=O)c3c(Cl)cccc3Cl)C(=O)O)cc2)c(OC)c1", "note": "[Example 139]", "IC50": "< 300"}
{"molecule": "COCOc1ccc2c(c1-c1ccc(C[C@H](NC(=O)c3c(Cl)cccc3Cl)C(=O)O)cc1)OCO2", "note": "[Example 235, N-(2,6-Dichlorobenzoyl)-4-[2,3-methylenedioxy-6-(methoxymethoxy)phenyl]-L-phenylalanine]", "IC50": "< 300"}
{"molecule": "O=C(O)c1ccc(C(=O)N[C@@H](Cc2ccc(-c3ccccc3O)cc2)C(=O)O)cc1", "note": "[Example 81]", "IC50": "> 5000"}
{"molecule": "CS(=O)(=O)Nc1ccccc1-c1ccc(C[C@H](NC(=O)c2c(Cl)cccc2Cl)C(=O)O)cc1", "note": "[Example 24, N-(2,6-Dichlorobenzoyl)-4-[2-(methanesulfonylamino)phenyl]-L-phenylalanine]", "IC50": "< 300"}
{"molecule": "C=CCOc1cc(OC)c(-c2ccc(C[C@H](NC(=O)c3c(Cl)cccc3Cl)C(=O)O)cc2)c(OC)c1", "note": "[Example 347]", "IC50": "< 300"}
{"molecule": "CCOC(=O)Nc1ccc(C(=O)N[C@@H](Cc2ccc(-c3ccccc3OC)cc2)C(=O)O)c(Cl)c1", "note": "[Example 66, N-[2-Chloro-4-(ethoxycarbonylamino)benzoyl]-4-(2-methoxyphenyl)-L-phenylalanine]", "IC50": "< 300"}
